Measurements as given in publication doi:10.1101/2021.09.30.462449v1 (biorxiv, 2021).

Tests used:
Assay in all cases: biochemical
[1] = target: CAMK1 (CaMK1) (Homo sapiens, UniProt Q14012); details: read-out: % inhibition mean (Adapta)
[2] = target: ABL1 Y253F (Homo sapiens, UniProt P00519, Y253F); details: read-out: % inhibition mean (Z'Lyte)
[3] = target: CDK2/cyclin A (Homo sapiens, UniProt P24941); details: read-out: % inhibition mean (Z'Lyte)
[4] = target: CSF1R (FMS) (Homo sapiens, UniProt P07333); details: read-out: % inhibition mean (Z'Lyte)
[5] = target: EGFR (ErbB1) C797S (Homo sapiens, UniProt P00533, C797S); details: read-out: % inhibition mean (Z'Lyte)
[6] = target: EGFR (ErbB1) T790M L858R (Homo sapiens, UniProt P00533, L858R/T790M); details: read-out: % inhibition mean (Z'Lyte)
[7] = target: ERBB4 (HER4) (Homo sapiens, UniProt Q15303); details: read-out: % inhibition mean (Z'Lyte)
[8] = target: IKBKB (IKK beta) (Homo sapiens, UniProt O14920); details: read-out: % inhibition mean (Z'Lyte)
[9] = target: INSR (Homo sapiens, UniProt P06213); details: read-out: % inhibition mean (Z'Lyte)
[10] = target: ITK (Homo sapiens, UniProt Q08881); details: read-out: % inhibition mean (Z'Lyte)
ITK, sequence (Q08881 whole entry): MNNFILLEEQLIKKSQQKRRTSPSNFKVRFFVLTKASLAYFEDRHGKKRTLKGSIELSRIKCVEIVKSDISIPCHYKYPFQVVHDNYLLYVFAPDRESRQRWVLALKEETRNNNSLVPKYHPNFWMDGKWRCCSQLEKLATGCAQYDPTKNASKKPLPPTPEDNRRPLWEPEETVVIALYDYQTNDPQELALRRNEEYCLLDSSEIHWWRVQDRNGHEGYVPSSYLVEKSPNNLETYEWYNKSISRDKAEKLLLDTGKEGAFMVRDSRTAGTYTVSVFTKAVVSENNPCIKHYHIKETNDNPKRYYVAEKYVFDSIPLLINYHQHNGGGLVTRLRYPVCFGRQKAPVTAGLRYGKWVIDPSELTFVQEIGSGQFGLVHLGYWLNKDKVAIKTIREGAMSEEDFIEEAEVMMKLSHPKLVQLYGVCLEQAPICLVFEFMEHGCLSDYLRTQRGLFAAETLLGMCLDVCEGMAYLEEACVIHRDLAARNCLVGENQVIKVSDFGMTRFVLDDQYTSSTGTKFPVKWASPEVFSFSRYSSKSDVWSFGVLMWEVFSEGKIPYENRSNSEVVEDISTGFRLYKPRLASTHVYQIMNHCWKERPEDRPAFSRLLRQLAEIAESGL

[11] = target: JAK2 JH1 JH2 (Homo sapiens, UniProt O60674); details: read-out: % inhibition mean (Z'Lyte)
[12] = target: LCK (Homo sapiens, UniProt P06239); details: read-out: % inhibition mean (Z'Lyte)
LCK, sequence (P06239 whole entry): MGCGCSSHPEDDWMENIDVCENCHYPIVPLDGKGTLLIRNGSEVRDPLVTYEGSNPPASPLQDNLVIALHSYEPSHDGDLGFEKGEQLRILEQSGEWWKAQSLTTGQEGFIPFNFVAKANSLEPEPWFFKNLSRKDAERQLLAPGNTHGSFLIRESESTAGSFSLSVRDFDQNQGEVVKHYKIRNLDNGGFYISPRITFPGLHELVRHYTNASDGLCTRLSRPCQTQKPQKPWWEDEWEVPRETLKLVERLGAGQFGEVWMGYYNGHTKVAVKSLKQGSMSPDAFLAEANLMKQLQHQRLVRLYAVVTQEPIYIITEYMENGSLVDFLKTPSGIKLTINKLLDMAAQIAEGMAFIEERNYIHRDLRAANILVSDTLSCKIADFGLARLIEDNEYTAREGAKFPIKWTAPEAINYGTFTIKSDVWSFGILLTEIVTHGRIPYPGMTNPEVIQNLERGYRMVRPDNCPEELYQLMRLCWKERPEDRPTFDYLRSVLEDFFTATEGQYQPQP

[13] = target: MAP2K1 (MEK1) (Homo sapiens, UniProt Q02750); details: read-out: % inhibition mean (Z'Lyte)
MAP2K1 (MEK1), sequence (Q02750 whole entry): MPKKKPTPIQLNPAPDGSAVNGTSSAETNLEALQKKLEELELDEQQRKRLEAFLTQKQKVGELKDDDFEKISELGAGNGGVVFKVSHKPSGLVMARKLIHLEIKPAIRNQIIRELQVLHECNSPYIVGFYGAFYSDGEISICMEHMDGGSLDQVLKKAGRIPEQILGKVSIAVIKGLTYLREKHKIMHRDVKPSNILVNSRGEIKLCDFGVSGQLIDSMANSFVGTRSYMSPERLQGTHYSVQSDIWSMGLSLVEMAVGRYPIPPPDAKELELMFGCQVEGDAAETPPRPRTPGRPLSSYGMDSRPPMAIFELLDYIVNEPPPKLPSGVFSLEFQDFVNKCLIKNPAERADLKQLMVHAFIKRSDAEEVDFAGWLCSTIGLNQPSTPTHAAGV

[14] = target: MATK (HYL) (Homo sapiens, UniProt P42679); details: read-out: % inhibition mean (Z'Lyte)
MATK (HYL), sequence (P42679 whole entry): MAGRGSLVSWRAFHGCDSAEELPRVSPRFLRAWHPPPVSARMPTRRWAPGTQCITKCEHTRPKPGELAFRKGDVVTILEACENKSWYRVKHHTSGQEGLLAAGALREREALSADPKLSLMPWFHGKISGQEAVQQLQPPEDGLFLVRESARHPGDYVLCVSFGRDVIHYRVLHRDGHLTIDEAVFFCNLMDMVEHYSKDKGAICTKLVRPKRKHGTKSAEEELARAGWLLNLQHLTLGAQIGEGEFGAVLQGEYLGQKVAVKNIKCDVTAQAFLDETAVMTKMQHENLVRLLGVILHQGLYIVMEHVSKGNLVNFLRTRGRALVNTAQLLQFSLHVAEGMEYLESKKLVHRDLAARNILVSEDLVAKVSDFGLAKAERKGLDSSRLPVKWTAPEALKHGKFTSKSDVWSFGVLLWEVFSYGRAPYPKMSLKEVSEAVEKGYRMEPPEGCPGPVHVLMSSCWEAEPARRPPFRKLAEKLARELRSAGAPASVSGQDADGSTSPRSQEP

[15] = target: PKN1 (PRK1) (Homo sapiens, UniProt Q16512); details: read-out: % inhibition mean (Z'Lyte)
PKN1 (PRK1), sequence (Q16512 whole entry): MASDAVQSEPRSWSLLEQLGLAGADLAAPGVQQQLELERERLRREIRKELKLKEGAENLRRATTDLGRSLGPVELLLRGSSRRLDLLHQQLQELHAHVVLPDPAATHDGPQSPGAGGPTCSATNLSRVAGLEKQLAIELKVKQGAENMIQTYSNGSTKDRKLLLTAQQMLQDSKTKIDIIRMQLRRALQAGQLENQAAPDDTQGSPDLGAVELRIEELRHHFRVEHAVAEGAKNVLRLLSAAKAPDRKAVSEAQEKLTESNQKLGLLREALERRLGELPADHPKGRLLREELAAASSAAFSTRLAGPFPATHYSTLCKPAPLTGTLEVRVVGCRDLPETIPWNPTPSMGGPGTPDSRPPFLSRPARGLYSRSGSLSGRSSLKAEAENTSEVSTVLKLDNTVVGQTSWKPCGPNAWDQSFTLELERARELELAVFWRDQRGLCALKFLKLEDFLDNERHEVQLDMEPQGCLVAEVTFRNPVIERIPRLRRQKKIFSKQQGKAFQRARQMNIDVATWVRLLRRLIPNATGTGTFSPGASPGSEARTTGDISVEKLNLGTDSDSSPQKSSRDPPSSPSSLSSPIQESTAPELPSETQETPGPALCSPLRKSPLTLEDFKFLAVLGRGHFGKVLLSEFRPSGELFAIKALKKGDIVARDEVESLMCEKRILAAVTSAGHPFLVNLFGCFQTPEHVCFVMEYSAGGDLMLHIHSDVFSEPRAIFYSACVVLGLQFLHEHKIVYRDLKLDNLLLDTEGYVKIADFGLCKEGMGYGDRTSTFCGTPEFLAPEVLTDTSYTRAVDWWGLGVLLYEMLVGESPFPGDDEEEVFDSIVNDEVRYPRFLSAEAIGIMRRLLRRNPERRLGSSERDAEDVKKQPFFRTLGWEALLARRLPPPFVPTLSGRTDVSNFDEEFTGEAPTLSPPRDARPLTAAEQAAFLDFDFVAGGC

[16] = target: PRKCI (PKC iota) (Homo sapiens, UniProt P41743); details: read-out: % inhibition mean (Z'Lyte)
[17] = target: PRKCZ (PKC zeta) (Homo sapiens, UniProt Q05513); details: read-out: % inhibition mean (Z'Lyte)
PRKCZ (PKC zeta), sequence (Q05513 whole entry): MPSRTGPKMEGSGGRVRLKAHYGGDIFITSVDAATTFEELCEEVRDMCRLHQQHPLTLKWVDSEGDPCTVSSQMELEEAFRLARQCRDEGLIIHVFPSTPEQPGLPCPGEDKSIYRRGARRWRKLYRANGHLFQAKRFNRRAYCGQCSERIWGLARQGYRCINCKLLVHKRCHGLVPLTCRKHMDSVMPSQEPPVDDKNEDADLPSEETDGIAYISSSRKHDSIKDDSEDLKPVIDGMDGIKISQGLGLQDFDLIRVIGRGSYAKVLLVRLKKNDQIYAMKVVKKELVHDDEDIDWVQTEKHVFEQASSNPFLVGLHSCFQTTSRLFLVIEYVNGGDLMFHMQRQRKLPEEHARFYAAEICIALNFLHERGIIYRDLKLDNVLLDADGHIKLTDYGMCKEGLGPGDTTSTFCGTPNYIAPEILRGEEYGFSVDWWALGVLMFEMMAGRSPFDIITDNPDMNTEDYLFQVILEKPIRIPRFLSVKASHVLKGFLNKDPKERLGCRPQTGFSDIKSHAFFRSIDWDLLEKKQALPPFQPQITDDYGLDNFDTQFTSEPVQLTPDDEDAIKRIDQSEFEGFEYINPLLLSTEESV

[18] = target: SGK2 (Homo sapiens, UniProt Q9HBY8); details: read-out: % inhibition mean (Z'Lyte)
[19] = target: SRC (Homo sapiens, UniProt P12931); details: read-out: % inhibition mean (Z'Lyte)
[20] = target: SRMS (Srm) (Homo sapiens, UniProt Q9H3Y6); details: read-out: % inhibition mean (Z'Lyte)
[21] = target: TAOK2 (TAO1) (Homo sapiens, UniProt Q9UL54); details: read-out: % inhibition mean (Z'Lyte)
[22] = target: TYRO3 (RSE) (Homo sapiens, UniProt Q06418); details: read-out: % inhibition mean (Z'Lyte)
TYRO3 (RSE), sequence (Q06418 whole entry): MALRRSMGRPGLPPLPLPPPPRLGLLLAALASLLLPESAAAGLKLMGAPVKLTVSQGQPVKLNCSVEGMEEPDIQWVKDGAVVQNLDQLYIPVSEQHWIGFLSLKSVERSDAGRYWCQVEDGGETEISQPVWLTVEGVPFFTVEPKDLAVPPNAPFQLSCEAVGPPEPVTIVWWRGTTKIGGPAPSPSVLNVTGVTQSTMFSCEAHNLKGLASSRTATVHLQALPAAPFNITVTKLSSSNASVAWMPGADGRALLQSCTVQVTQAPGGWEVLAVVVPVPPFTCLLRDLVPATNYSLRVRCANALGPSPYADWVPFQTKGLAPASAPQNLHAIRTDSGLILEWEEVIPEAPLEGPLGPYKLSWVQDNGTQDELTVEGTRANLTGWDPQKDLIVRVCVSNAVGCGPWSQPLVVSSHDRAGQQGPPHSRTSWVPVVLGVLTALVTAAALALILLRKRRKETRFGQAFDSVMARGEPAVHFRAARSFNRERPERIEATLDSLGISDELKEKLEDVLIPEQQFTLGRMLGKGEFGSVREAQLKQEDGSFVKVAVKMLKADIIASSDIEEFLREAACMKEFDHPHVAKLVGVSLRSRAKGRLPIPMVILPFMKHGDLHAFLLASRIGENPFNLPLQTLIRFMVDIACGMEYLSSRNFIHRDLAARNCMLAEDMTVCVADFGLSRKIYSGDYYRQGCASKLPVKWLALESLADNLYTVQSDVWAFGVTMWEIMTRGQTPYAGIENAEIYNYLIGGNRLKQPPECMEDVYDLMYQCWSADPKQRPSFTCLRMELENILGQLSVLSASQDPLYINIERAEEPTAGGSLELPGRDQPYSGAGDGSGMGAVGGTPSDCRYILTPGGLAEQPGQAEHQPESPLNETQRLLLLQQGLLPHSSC

CAMK1 (CaMK1), sequence (Q14012 whole entry): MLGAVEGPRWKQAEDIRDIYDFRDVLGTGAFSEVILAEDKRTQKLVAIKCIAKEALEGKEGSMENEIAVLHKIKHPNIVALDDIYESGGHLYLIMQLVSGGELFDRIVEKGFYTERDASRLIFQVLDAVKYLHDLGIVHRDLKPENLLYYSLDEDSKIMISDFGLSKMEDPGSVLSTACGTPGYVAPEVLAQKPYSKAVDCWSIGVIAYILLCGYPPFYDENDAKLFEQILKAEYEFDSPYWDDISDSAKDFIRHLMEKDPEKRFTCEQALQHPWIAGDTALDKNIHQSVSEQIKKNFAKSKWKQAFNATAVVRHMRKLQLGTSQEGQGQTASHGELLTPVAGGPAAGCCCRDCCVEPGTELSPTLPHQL

## COc1ccc2nc3cc(Cl)ccc3c(Nc3cc(CN4CCCC4)c(O)c(CN4CCCC4)c3)c2n1 [Pyronaridine, 4-[(7-Chloro-2-methoxybenzo[b][1,5]naphthyridin-10-yl)amino]-2,6-bis(1-pyrrolidinylmethyl)phenol phosphate (1:4)]
[1]
  inhibition at 1 µM: 35%
[2]
  inhibition at 1 µM: -1%
[3]
  inhibition at 1 µM: 0%
[4]
  inhibition at 1 µM: -3%
[5]
  inhibition at 1 µM: -7%
[6]
  inhibition at 1 µM: 5%
[7]
  inhibition at 1 µM: -2%
[8]
  inhibition at 1 µM: 1%
[9]
  inhibition at 1 µM: 10%
[10]
  inhibition at 1 µM: 2%
[11]
  inhibition at 1 µM: -3%
[12]
  inhibition at 1 µM: 12%
[13]
  inhibition at 1 µM: -2%
[14]
  inhibition at 1 µM: -2%
[15]
  inhibition at 1 µM: 1%
[16]
  inhibition at 1 µM: -10%
[17]
  inhibition at 1 µM: -1%
[18]
  inhibition at 1 µM: 3%
[19]
  inhibition at 1 µM: 14%
[20]
  inhibition at 1 µM: 2%
[21]
  inhibition at 1 µM: -1%
[22]
  inhibition at 1 µM: -5%
